Test system: Plasmodium falciparum
Test: GSK_TCMDC: Inhibition of Plasmodium falciparum 3D7 in whole erythrocytes, using parasite LDH activity as an index of growth.
Format: functional, organism-based
Details: Plasmodium falciparum, 3D7

SMILES	XC50 [µM]
O=C(/C=C/c1ccc(Cl)c(Cl)c1)NC1CCC(CN2CCC(c3nc4cc(O)ccc4[nH]3)CC2)CC1 (stereo not given)	0.241
COc1ccc(CC(C)NCC(O)c2cccc(C(F)(F)F)c2)cc1F (stereo not given)	0.827
c1cncc(CCNCc2ccc(-c3ccc(-c4nc5ccccc5[nH]4)s3)cc2)c1	0.213
O=C(Nc1cccc(CN2CCCN(Cc3cccnc3)CC2)c1)c1cc2ccccc2s1	1.47
CC(=O)c1cccc(NC(=O)N2CCCN(CCCCCNC(=O)/C=C/c3ccc(Cl)c(Cl)c3)CC2)c1	1.01
COc1ccc(N2CCN(CCc3ccc(NC(=O)c4ccc([N+](=O)[O-])cc4)cc3)CC2)c(OC)c1	1.17
O=C(/C=C/c1cc(C(F)(F)F)ccc1F)NCCCCCN1CCC(c2c[nH]c3ccccc23)CC1	1.13
CC(C)C[C@@H](CNC[C@H](CC(C)C)NC(=O)OC(C)(C)C)NC(=O)OC(C)(C)C	1.25
CC(C)CCCC(C)(C)NC[C@@H](O)[C@H](Cc1ccccc1)NC(=O)c1cc(NC(C)C)cc(N2CCCCS2(=O)=O)c1F	0.219
CC(C)c1nc(N2CCN(C(=S)NCc3ccccc3)CC2)c(C#N)c2c1COC(C)(C)C2	0.142
Nn1c(=O)oc2ccc(Cl)cc2c1=O	0.187
CCN1CC=C(c2c[nH]c3ccccc23)CC1	1.03
O=C(c1ccc(OCCn2ccnc2)cc1)N1CCC(c2ccc(Br)cc2)C1 (stereo not given)	0.116
CC(C)(C)c1ccc(CNC(=O)c2cc(CNC3CCNC3)ccc2O)cc1 (stereo not given)	0.805
CC(C)N1CCC(N(Cc2ccc(-c3ccc(Cl)cc3)cc2)C(=O)Cn2c(CCc3cccc(F)c3F)nc(=O)c3ccccc32)CC1	0.944
COc1cccc(Nc2nc(Nc3cccc(C#N)c3)cc(-c3ccncc3)n2)c1	0.764
Nc1ccnc2ccc(OCCCCCCc3ccccc3)cc12	0.524
COc1ccc(Cl)c(CC2c3cc(O)c(Cl)cc3CCN2C)c1 (stereo not given)	0.695
CC[C@H]1CN2CC[C@@H]1C[C@H]2[C@H](O)c1cc(N2CCC(N3CCCCC3)CC2)nc2ccc(OC)cc12	0.267
CCN(CCCN1CCCCC1)c1cc(C)nc(Nc2ccc3c(c2)CCC3)n1	0.394
COc1ccc(-c2cccc(NC(=O)c3ccc(F)cc3)c2)cc1CN1CCCN(C)CC1	0.833
CC(=O)Oc1c(Cl)c(C)nc(C)c1-c1ccc(Oc2ccc(Cl)cc2)cc1	0.0315
CCOc1c(CNCCCNc2nc3ccccc3[nH]2)cc(I)cc1OC	0.663
N#Cc1ccc2c(c1)CN(CCC1CCC(NC(=O)c3cc4ccccc4cc3N)CC1)CC2 (stereo not given)	1.04

SMILES	XC50 [µM]
COc1ccc(CCn2c(=N)c(C(=O)NCc3ccccc3)cc3c(=O)n4ccccc4nc32)cc1	0.751
Cc1nc2nc(N)nc(N)c2c(C)c1Cc1cccc(C(F)(F)F)c1	1.29
O=C(N[C@H]1CCN(Cc2ccc(OCCN3CCCC3)c(Cl)c2)C1)c1ccc(Cl)c(Cl)c1	0.921
N#Cc1cccc(-c2nc(NCc3cccc(C(F)(F)F)c3)nn2-c2cccc(C(F)(F)F)c2)c1	0.592
CCN1CCN(c2ccc(Nc3c4ccccc4nc4ccccc34)cc2)CC1	0.718
CCCN(c1ccc(O)c(CN2CCCCC2)c1)c1ccc([N+](=O)[O-])cn1	0.805
CN1CCC(c2csc3ccc(NC(=O)Nc4ccc(-c5ccncc5)c5ccccc45)cc23)CC1	1.02
c1ccc(Oc2ccc(Nc3ccnc4cc(-c5ccc(CNCCN6CCOCC6)o5)ccc34)cc2)cc1	0.439
COc1cccc(C23NC(=Nc4nc5ccccc5[nH]4)NC2(c2cccc(OC)c2)NC(=Nc2nc4ccccc4[nH]2)N3)c1 (stereo not given)	0.157
COc1cc(NC(=O)c2ccc3c(=O)n(Cc4ccccc4)c(=S)[nH]c3c2)cc(OC)c1OC	0.743
COc1ccc(CN2CCC(Oc3cccc(NC(=O)c4ccc(C(F)(F)F)cc4)c3)CC2)cc1	0.743
COc1ccc2nccc(N3C[C@H]4C[C@@H]3CN4CCNCc3ccc4c(n3)NC(=O)CS4)c2n1	0.973
O=C(NCCCCCN1CCC(c2c[nH]c3ccccc23)C1)Nc1ccc(Cl)c(Cl)c1 (stereo not given)	0.811
O=C(/C=C/c1ccc(Cl)c(Cl)c1)NC1CCC(CN2CCC(c3cc4ccccc4[nH]3)CC2)CC1 (stereo not given)	0.987
CCCC(CNCc1cccc(I)c1)CNc1cc(=O)c2ccccc2[nH]1 (stereo not given)	0.471
Cc1cc(CN2CC[C@H](NC(=O)c3ccc(Cl)c(Cl)c3)C2)ccc1OC1CCN(C)C1 (stereo not given in full)	0.947
Cc1cc(-c2ccnc(Nc3cccc(C#N)c3)n2)cc(C)c1O	0.924
CC(C)N1CCN(C(CN2CCN(CCCOc3cccc4ccccc34)CC2)c2ccc(F)cc2)CC1 (stereo not given)	0.879
Oc1ccc(CCNc2nc(NCCCOc3ccccc3-c3ccncc3)nc(N3CCNCC3)n2)cc1	1.11
CCCCCN1CCCC(NS(=O)(=O)c2cccc(C(=O)Nc3cccc(C(F)(F)F)c3)c2)C1 (stereo not given)	1.07
O=C1COC2(CN1C1CCN(Cc3ccc(O)c(Cl)c3)C1)c1ccccc1-c1ccccc12 (stereo not given)	0.96
O=[N+]([O-])c1ccccc1/C=N/Nc1ccnc2ccc(C(F)(F)F)cc12	0.71
CC(C)CNCc1cccc(-c2cccc(CNC3CCN(Cc4ccccc4)CC3)c2)c1	0.183
O=C(NC1CCC(CN2CCC(c3c[nH]c4ccccc34)CC2)CC1)C1(O)c2ccccc2-c2ccccc21 (stereo not given)	1.19

SMILES	XC50 [µM]
CCOc1ccccc1CCNCC1CCN(CC2CCCCC2)CC1	0.783
CN1CCCN(Cc2ccc(-c3cccc(NC(=O)c4ccc(Cl)cc4)c3)cc2)CC1	0.61
O=C(Nc1ccc(-c2nc3ccccc3[nH]2)cc1)C1CCCN(CC2CC2)C1 (stereo not given)	0.946
FC(F)(F)c1ccc2[nH]c(-c3ccc(-c4cccc(CNCCN5CCNCC5)c4)s3)nc2c1	1.04
CN(C)CCNCc1cccc(-c2ccc3c(Nc4ccc(F)cc4Cl)ccnc3c2)c1	0.809
COc1ccc(C2CCN(CCN3CCC(NC(=O)c4cccc(-c5ccncc5)c4)CC3)CC2)c(OC)c1	0.797
CCN(CC)CCCSc1ccc(-c2ccc(SCCCN(CC)CC)cc2)cc1	1.16
O=C(NCCCCCN1CCC(c2c[nH]c3ccccc23)CC1)c1ccc(-c2cccnc2)cc1	1.03
O=C(C=Cc1ccc(Cl)c(Cl)c1)NCCCCCN1CCC(CCCNS(=O)(=O)c2cccc(C(F)(F)F)c2)CC1	0.477
O=C(Nc1ccccc1)c1nn(CCCN2CCC(N3CCCC3)CC2)cc1-c1ccc(Cl)c(Cl)c1	0.24
CO/C(=C\C=C\c1cc2cc(Cl)c(Cl)cc2[nH]1)C(=O)NCCN1CCCCC1	1.4
COc1ccc(NC(=O)Nc2ccc(-c3ccccc3)cc2)cc1Cn1nc(Cl)c(N2CCCNCC2)cc1=O	0.364
Cc1ccc(NC(=S)N2CCCN(CCCCCNC(=O)/C=C/c3ccc(Cl)c(Cl)c3)CC2)cc1Cl	0.916
CCOC(=O)CC[C@H](NC(=O)c1ccc(NS(=O)(=O)c2ccc(-c3cnc(N)[nH]c3=O)cc2)cc1)C(=O)OCC	0.174
OCCN1CCN(Cc2ccc(-c3ccc(-c4nc5cc(F)ccc5[nH]4)cc3)cc2)CC1	0.567
COc1cccc(C(O)CNc2ccnc(Nc3ccc(Cl)cc3)n2)c1 (stereo not given)	0.606
O=C(N[C@@H](CC1CCCCC1)C(=O)NC1CCCc2ccccc21)c1ccc(O)c(-c2ccc(Cl)c(Cl)c2)c1 (stereo not given in full)	0.195
Cc1ccc(CNC(=O)[C@H](Cc2ccccc2)Nc2cc(C)nc(NCc3ccccc3C)n2)cc1	0.803
CCCCCCN(CCCCCC)CC(O)c1cc(-c2ccc(Cl)cc2)nc2c(C)cc(C)cc12 (stereo not given)	0.0673
O=C(Nc1cccc(C(F)(F)F)c1)c1cccc(S(=O)(=O)NCC2CCN(CC3CCCCC3)CC2)c1	1.47
Cc1ccc(Cc2c[nH]c(NCCSCc3ccc(CN(C)C)s3)nc2=O)cn1	0.86
CCNc1cc(C(=O)N[C@@H](Cc2ccccc2)[C@H](O)CNC2C3CC4CC(C3)CC2C4)cc(N2CCCCS2(=O)=O)c1 (stereo not given in full)	0.668
CCC(CC)N1C(=O)C(c2ccccc2)(c2ccccc2)N=C1N	0.805
CCN1CCC(N(Cc2ccc(-c3ccc(C(F)(F)F)cc3)cc2)C(=O)CCCCn2c(CCc3cccc(F)c3F)nc(=O)c3ccccc32)CC1	0.989

SMILES	XC50 [µM]
O=C(Nc1cccc(CN2CCCN(Cc3ncc[nH]3)CC2)c1)c1ccc(Cl)c(Cl)c1	0.795
Cc1cc(Nc2ccc(Cl)c(Cl)c2)n2nc(C)nc2n1	0.258
Cc1cccc2nc(-c3ccc(-c4ccc(CNCc5cnn(-c6ccccc6)n5)cc4)cc3)[nH]c12	0.428
CN1CC=C(c2c[nH]c3ccc(Sc4ccccc4)cc23)CC1	0.356
CC1CCN(c2nc(C(=O)NCCc3ccc(Cl)c(Cl)c3)c(C(C)C)s2)CC1	1.93
Nc1cc(/C=C/c2ccc([N+](=O)[O-])s2)nc2ccccc12	0.76
Cc1ccc(CNC(=O)[C@H](CCCN)Nc2nc(Nc3ccccc3)ncc2C)cc1	1.53
CN(c1ccc(NC(=O)Nc2cc(C(C)(C)C)on2)cc1)c1ccnc(NCCN2CCOCC2)n1	1.12
O=C(NC1CCN(Cc2ccccc2)CC1)c1ccc(-c2nc3cc(Cl)c(F)cc3[nH]2)s1	0.306
CCCCCCN(CCCCCC)CC(O)c1c(OC)ccc2ccccc12 (stereo not given)	0.567
CC(C)(C)COC(=O)c1ccc(NC(=O)N[C@@H](Cc2ccc(O)cc2)C(=O)NC2CCN(Cc3ccc(O)cc3)C2)cc1 (stereo not given in full)	0.668
CC(C)C[C@H](NC(=O)c1cc2ccccc2s1)C(=O)N[C@H]1CCN(Cc2ccc(OC3CCN(C)C3)c(Cl)c2)C1 (stereo not given in full)	0.782
FC(F)(F)c1ccc2[nH]c(-c3ccc(-c4ccc(CNCC5CCCO5)cc4)cc3)nc2c1 (stereo not given)	0.407
O=C(NC1CCC(CN2CCC(c3c[nH]c4ccccc34)CC2)CC1)c1cc(-c2ccccc2Cl)n(-c2cccc(Cl)c2)n1 (stereo not given)	0.851
CN1CCCc2ccc(NC(=O)Nc3ccc(-c4ccccc4)cc3)cc2C1	0.38
O=C(/C=C/c1cccc(C(F)(F)F)c1)NCCCCCN1CCC(c2c[nH]c3ccccc23)CC1	0.837
COc1cc2nc(N3CCC(CCCC4CCNCC4)CC3)nc(NCc3ccccn3)c2cc1OC	0.757
Cc1cc(=NN=Cc2cccc(Cl)c2)c2cc(F)ccc2[nH]1	0.759
c1ccc(-c2nc(NC3CCCCC3)cc(C3CC3)n2)nc1	0.728
Cc1nccc2c(NC(=O)N[C@@H]3CCN(c4ncc(C(F)(F)F)cc4Br)C3)cccc12	0.364
COc1cc(C=NNc2cc(C)nc3c(OC)cccc23)cc(OC)c1OC	0.887
CN(c1ccc(NC(=O)c2cccc(F)c2)cc1)C1CCCN(Cc2cccc(O)c2)C1 (stereo not given)	1.3
COc1cc2nc(N3CCC(CNC(=O)c4ccc(NC(=O)c5ccc(Cl)cc5)cc4)CC3)nc(N)c2cc1OC	0.264

— ChEMBL document CHEMBL1157539, “Thousands of chemical starting points for antimalarial lead identification” (Nature, 2010)
